Measured values published in PubChem BioAssay AID651717 (Broad Institute, 2012).

test system: mESC Bmi1-luciferase reporter, firefly/renilla ratio, 24 h; assay: Bmi1-luciferase reporter activators in mESC, dose response, esBAF inhibitor project, mouse embryonic stem cells, cherry-pick (AID 651717);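 further: luciferase knocked into Bmi1 locus with EF-1a renilla as cell number control; rising ratio signals esBAF inhibition which derepresses Bmi1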

Structure (SMILES) | AC40
Cc1ccccc1C(=O)c1cccn1CC(=O)NCc1cccc(Cl)c1 | 13.6 µM
O=C(Cc1ccccc1)Nc1nc(-c2cccs2)cs1 | 8.2 µM
CC(=O)Oc1ccc(-c2cc3ccccc3oc2=O)cc1 | 3.22 µM
Cc1csc(SCCN2C(=O)c3ccccc3C2=O)n1 | 3.17 µM
CCN1CCN(c2ccc(NC(=O)c3cccc(N4CCCC4=O)c3)cc2)CC1 | 10.3 µM
CC1CCC(NC(=O)c2cc3ccccc3cc2O)CC1 (stereo not given) | 0.967 µM
Cn1c(C(=O)N/N=C/c2ccccc2)cc2ccccc21 | 2.84 µM
Cc1ccc(NC(=O)Nc2ccc(F)c(Cl)c2)cc1 | 1.85 µM
CC(=O)c1ccc(OCc2cc(C(=O)N(C)Cc3ccccn3)no2)cc1 | 6.33 µM
CCS(=O)(=O)n1nc(-c2ccc(OC)cc2)nc1SC | 5.54 µM
O=C(CCc1nnc(CCc2c[nH]c3ccccc23)o1)NC1CCC1 | 4.41 µM
COc1ccc(OCc2cc(C(=O)NC(C)c3nc(C)cs3)no2)c(Cl)c1 (stereo not given) | 10.4 µM
Oc1cccc(C=NNc2ccccn2)c1 | 5.37 µM
Cc1ccc(NC(=O)C2CC3CCC2C3)c(Br)c1 (stereo not given) | 1.22 µM
CC(Cc1cccs1)NC(=O)c1cccc(Cl)c1 (stereo not given) | 2.76 µM
Nc1ccc2c(c1)Cc1cc(N)c(Cl)cc1-2 | 3.41 µM
O=C(Nc1ccccn1)c1c(O)c2cccc3c2n(c1=O)CCC3 | 18.4 µM
CCN(CC(=O)NCc1ccc(F)cc1)C(=O)c1ccc(COc2ccccc2)cc1 | 25.2 µM
CCN(CC)S(=O)(=O)c1ccc2c(c1)nc(-c1ccccn1)n2C | 11.1 µM
COC(=O)C1CCc2c(ccc3c2CCCC3)C1=O (stereo not given) | 4.54 µM
CC(=O)c1ccc(NC(=O)CNCc2cccs2)cc1 | 12.3 µM
C=CCn1c(=O)c(C(=O)Nc2ccc(C)cc2)c(O)c2ccccc21 | 13.1 µM
COc1ccc(C2=Nc3ccccc3NC(=O)C2N(C(=O)c2cnc(C)cn2)c2ccc(N3CCOCC3)cc2)cc1 (stereo not given) | 21.8 µM
COc1cc2ccccc2cc1C(=O)NC1CCCC1 | 8.82 µM

Structure (SMILES) | AC40
Cc1ccnc(NC(=O)c2ccc3c(c2)C(=O)N(CC(C)C)C3=O)c1 | 2.87 µM
CCC(=O)Nc1cccc(-c2nnc(-c3ccccc3)o2)c1 | 2.83 µM
COc1cc(/C=N/NC(=O)c2nnn(-c3nonc3N)c2C)ccc1OCc1ccc(Cl)cc1 | 19.7 µM
O=C(COC(=O)c1cc2ccccc2oc1=O)Nc1cccc(S(=O)(=O)N2CCCCCC2)c1 | 12.7 µM
CC(=O)Nc1ccc(CNc2nc3cc(-c4ccc(F)cc4)sc3c(=O)n2C)cc1 | 1.69 µM
COc1ccc(C(=O)CNc2cccc(F)c2)cc1 | 16.4 µM
CN(C)c1cccc(-c2csc(N3CCC(C(N)=O)CC3)n2)c1 | 0.362 µM
O=C(NNC(=O)c1cccc2ccccc12)c1ccc(Cl)cc1Cl | 12.7 µM
COc1cc(/C=C2/C(=N)N3N=C(CC(=O)N4CCOCC4)SC3=NC2=O)ccc1OCc1ccc(F)cc1 | 3.4 µM
CCCS(=O)(=O)N1CCC(C(=O)NC2CCC(C)CC2)CC1 (stereo not given) | 3.19 µM
Cc1cc(=O)oc2cc(NC(=O)c3cccc(F)c3)ccc12 | 1.82 µM
O=C(N/N=C/c1cccs1)c1cccc2cc[nH]c12 | 6.06 µM
CCN(CC)S(=O)(=O)c1cccc(-c2nc3n(n2)Cc2ccccc2-3)c1 | 21.7 µM
COc1ccc(-n2nc(C(=O)NCC(=O)N3CCN(c4ccccc4F)CC3)c3ccccc3c2=O)cc1 | 1.22 µM
OC(c1cccc(F)c1)c1ncc(-c2ccc3ccccc3c2)[nH]1 (stereo not given) | 9.76 µM
COc1ccc(C(O)c2nc(-c3ccc4ccccc4c3)cs2)cc1 (stereo not given) | 13 µM
O=C(Nc1ccccc1)c1cc(C2CCCN(C(=O)c3ccccc3)C2)on1 (stereo not given) | 4.54 µM
O=C(Cc1ccccc1)N/N=C/c1ccccc1OCc1ccc(Cl)cc1 | 4.61 µM
CO[C@H]1CN(C)C(=O)c2ccc(NC(=O)Nc3ccc4c(c3)OCO4)cc2OC[C@@H](C)NC[C@@H]1C | 2.76 µM
CN(C)S(=O)(=O)c1ccc(C(=O)Nc2ccc3c(c2)CCC3)cc1 | 4.91 µM
CCn1c(O)c(/C=C2\C=Nc3ccccc32)sc1=Nc1ccccc1 | 14.2 µM
O=C(c1cc2c(s1)-c1ccccc1OC2)N1CCCC1 | 1.71 µM
CC(C)C1C(=O)N(Cc2cn(CCC3OCCCO3)nn2)CCS(=O)(=O)N1Cc1ccc(-c2ccc(Cl)nc2)cc1 (stereo not given) | 17.8 µM
N/C(=N\OC(=O)CC1CCCCC1)c1ccccn1 | 3.84 µM

Structure (SMILES) | AC40
Cc1ccc(C(=O)NCC(=O)Nc2ccc3c(c2)CCC3)cc1 | 1.44 µM
COc1ccc(C(=O)N2CCc3ccccc32)cc1 | 5.97 µM
CCN(CC)S(=O)(=O)c1cccc(-c2cn3cc(C)ccc3n2)c1 | 4 µM
Cc1cc(OCc2cc(C(=O)N(C)C(C)c3ccccn3)no2)cc(C)c1Cl (stereo not given) | 14.7 µM
O=C(c1ccncc1)N(c1ccc(N2CCOCC2)cc1)C(c1ccccc1)c1nc2ccccc2[nH]1 (stereo not given) | 1.01 µM
Cc1ccc(C(=O)Nc2ccc3c(c2)OCO3)cc1S(=O)(=O)N1CCCCC1 | 1.69 µM
COc1ccccc1N1C(=O)S/C(=C\c2ccc(C)s2)C1=O | 1.95 µM
Clc1ccc(-c2cnnc(-c3ccccn3)n2)cc1 | 1.79 µM
Cc1cc(Cl)ccc1OCc1nnc(-c2ccccc2C)o1 | 5.44 µM
Cc1ccc(OCc2cc(C(=O)NCCc3cccnc3)no2)cc1C | 11.9 µM
CC(=O)Nc1cc2c3c(cccc3c1)-c1ccccc1-2 | 5.23 µM
Clc1ccc(-c2csc(N3CCSCC3)n2)cc1 | 5.65 µM
COc1cccc(-c2nc(-c3ccc(NC(=O)c4cccs4)cc3)no2)c1 | 4.26 µM
CN(C)c1ccc(C(=O)c2ccccc2)cc1 | 2.69 µM
COC(=O)c1ccc2[nH]c(C(C)(C)O)c(C)c2c1 | 1.37 µM
Fc1cccc(Cl)c1/C=N/Nc1ccccn1 | 8.55 µM
NC(=O)c1ccc(CSc2nc3ccccc3s2)cc1 | 4.64 µM
O=C(c1ccncc1)N1N=C(c2ccc(Cl)cc2)CC1c1ccccc1O (stereo not given) | 2.04 µM
COc1cccc(NC(=O)c2ccc3c(c2)CCN3S(C)(=O)=O)c1 | 7.43 µM
CCn1cnc2cc(NCc3ccccc3Cl)ccc21 | 3.92 µM
CC(C)CC1C(=O)N(Cc2cn(CCC3OCCCO3)nn2)CCS(=O)(=O)N1Cc1ccc(-c2ccc(Cl)nc2)cc1 (stereo not given) | 12.9 µM
N#Cc1ccc(-c2cn3c(n2)SCC3)cc1 | 4.82 µM
COc1cccc(-c2noc(C3CCCN(C(=O)CC(C)(C)C)C3)n2)c1 (stereo not given) | 6.48 µM
NC(=O)c1ccc(OCc2ccccc2)nc1 | 5.4 µM

Structure (SMILES) | AC40
O=C(NCCc1ccccc1)c1cccc(NC(=O)C2CCC2)c1 | 8.75 µM
CCC(C)(C)C1CCc2[nH]nc(C(=O)NC3CCCCC3)c2C1 (stereo not given) | 6.44 µM
CO[C@H]1CN(C)C(=O)c2ccc(NC(=O)Nc3ccc4c(c3)OCO4)cc2OC[C@@H](C)NC[C@H]1C | 3.55 µM
CC(NC(=O)c1cc(COc2ccc(-n3cncn3)cc2)on1)c1ccc(F)cc1 (stereo not given) | 5.4 µM
CS(=O)(=O)c1ccccc1C(=O)Nc1ccc(-c2nc3ccccc3o2)cc1 | 4.29 µM
Cc1noc(C)c1C(=O)Nc1nc(-c2cc(F)ccc2F)cs1 | 6.63 µM
CCCCSc1nnc(-c2ccc(OC)cc2)n1C | 9.08 µM
CC(=O)c1sc(Nc2ccc(Oc3ccccc3)cc2)nc1C | 2.08 µM
Clc1ccc(-c2nnc(-c3cccc4ccccc34)o2)cc1 | 1.79 µM
COc1cccc(/C=C2\SC(N3CCCC(C)C3)=NC2=O)c1OC (stereo not given) | 9.58 µM
COc1ccccc1C(=O)Nn1cnc2ccccc2c1=O | 8.5 µM
COc1ccc(C(=O)CC(=O)c2ccccc2O)cc1OC | 15.1 µM
CCOc1ccc(N=C(/C(C(=O)C(=O)N2CCOCC2)=C(\O)c2ccccc2)c2ccccc2)cc1 | 11.2 µM
COc1ccc2c(c1)CC/C(=C/c1ccccn1)C2=O | 1.86 µM
O=C(Nc1ccc2c(c1)OCO2)c1cnc(Cl)c(Cl)c1 | 1.74 µM
O=C(Cc1ccccn1)c1ccc(Cl)cc1 | 3.14 µM
CC(C)c1ccc(CNc2ncccn2)cc1 | 2.82 µM
CS(=O)(=O)c1ccccc1C(=O)Nc1ccc(-c2nc3ccccc3[nH]2)cc1 | 3.96 µM
CN(C)S(=O)(=O)c1cccc(C(=O)Nc2ccc(Cl)cn2)c1 | 5.04 µM
Cc1cccc(OCc2nc3ccccc3c(=O)n2N)c1 | 7.24 µM
COc1cccc(Nc2nc(-c3sc(C)nc3C)cs2)c1 | 8.61 µM
Cc1ccc(CNC(=O)c2ccc(Cn3cc(-c4ccc(C)cc4)nc3-c3ccncc3)cc2)cc1 | 1.77 µM
O=C(NCCc1ccccc1)c1nccc2ccccc12 | 6.84 µM
CCN(C(=O)c1cc2c(=O)n3ccccc3nc2s1)C1CCCCC1 | 14 µM

Structure (SMILES) | AC40
Clc1ccc(C=NN2CCCCCC2)cc1 | 0.983 µM
O=C(Cc1cccs1)Nc1nc2c(s1)CCCC2 | 1.66 µM
O=C(NCc1ccccc1)c1cc(-c2cccc(O)c2)on1 | 12.6 µM
CN(c1cccc(NC(=O)c2ccc(C(C)(C)C)cc2)c1)S(C)(=O)=O | 2.97 µM
Cc1csc(NC(=O)Cc2c[nH]c3ccccc23)n1 | 10.2 µM
COc1ccc(-c2nc(C#N)c(NC(C)C)o2)cc1 | 2.38 µM
N#CCc1nc(CSc2nc3ccccc3o2)cs1 | 12.3 µM
CN(c1nc(-c2ccccc2)cs1)C1CCS(=O)(=O)C1 (stereo not given) | 20.3 µM
COc1cc2c(cc1OC)C(=Cc1ccc(N(C)C)cc1)C=C2 | 2.44 µM
COc1ccc(N2CCN(C(=O)c3ccc(Cn4c(=S)[nH]c5ccc(N6CCOCC6)cc5c4=O)cc3)CC2)cc1 | 6.15 µM
CN1CCN(C(=O)C[C@@H]2CC[C@@H]3[C@H](COC[C@@H](O)CN3C(=O)Nc3ccc4c(c3)OCO4)O2)CC1 | 24.2 µM
CC(=O)c1c(C)[nH]c(C(=O)OCc2ccc(Br)cc2)c1C | 6.96 µM
Cc1ccccc1CNC(=O)Nc1ccc(Cl)cc1 | 15.1 µM
O=C1c2ccccc2C2N1CCCN2C(=O)c1sc2ccccc2c1Cl (stereo not given) | 4.3 µM
O=C(NCCc1ccccc1)c1ccc(Cl)c(S(=O)(=O)N2CCCC2)c1 | 8.04 µM
CC(C)c1ccc(C(O)c2cnc(C(C)C)n2C)cc1 (stereo not given) | 4.11 µM
CCNC(=O)O/N=C(\C)c1sc(-c2ccccc2)nc1C | 3.29 µM
CC(=O)Oc1ccc(-c2csc(Nc3ccc(Cl)cn3)n2)cc1 | 2.19 µM
CO[C@@H]1CN(C)C(=O)c2ccc(NC(=O)Nc3ccc4c(c3)OCO4)cc2OC[C@H](C)NC[C@H]1C | 6.56 µM
CCN(CC)C(=O)c1nc(-c2cccc3ccccc23)no1 | 13.1 µM
O=C1c2ccccc2CN1c1ccccc1 | 3.89 µM
c1ccc2c(c1)Nc1cc3ccccc3cc1O2 | 4.66 µM
C=CCn1c(-c2ccc(N)cc2)nc2ccccc21 | 0.806 µM
Nc1nc(SCc2ccccc2)c2ncn(C3CCCCC3)c2n1 | 2.09 µM
